Assay results as given in patent US11147272B2, “Pyridone compounds and agricultural and horticultural fungicides comprising the same as active ingredients” (MITSUI CHEMICALS AGRO, INC., priority 2017, dated 2021).

What was measured:
[1] = test system: Alternaia brassicicola; test: Test Example C: Alternaria sooty spot on cabbage; assay type: in vivo; details: Alternaria sooty spot on cabbage; class of control value
Description: Seeds of a test plant (cabbage variety: Shikidori) were planted and cultivated until the cotyledons extended.
<Control Value> Control value=100{1−(n/3)}

[2] = test system: Blumeria graminis f. sp. hordei; test: Test Example D: Powdery mildew on barley; details: Powdery mildew on barley; class of control value
[3] = test system: Phytophthora infestans; test: whole plant or invertebrate; assay type: in vivo; details: Late blight on tomato; class of control value
[4] = test system: Plasmopara viticola; test: Test Example G: Downy mildew on vine; details: Downy mildew on vine (Neomuscat); 250 ppm spray, 2.5 ml/pot; assessed 7 to 10 days after inoculation
[5] = test system: Colletotrichum orbiculare; test: Test Example H: Anthracnose on cucumber; details: Anthracnose on cucumber (Sagami Hanjiro); 250 ppm spray, 2.5 ml/pot; assessed 6 to 10 days after inoculation
[6] = test system: Magnaporthe grisea; test: whole plant or invertebrate; assay type: in vivo; details: Blast on rice; class of control value
[7] = test system: Puccinia recondita; test: Test Example E: Brown rust on wheat; assay type: in vivo; details: Brown rust on wheat; class of control value
[8] = test system: Botrytis cinerea; test: Test Example B: Gray mold on tomato; details: Gray mold on tomato; class of control value

Structure (SMILES): CC(C)c1cc(Cl)c(=O)n(C)c1-c1c(F)cc(F)cc1F [compound 15]
- Test C control value class [1]: H (more than 50% control value)
- Test D control value class [2]: H (more than 50% control value)
- Test F control value class [3]: L (50% or less control value)
- Test G control value class [4]: L (50% or less control value)
- Test H control value class [5]: H (more than 50% control value)
- Test A control value class [6]: H (more than 50% control value)
- Test E control value class [7]: H (more than 50% control value)
- Test B control value class [8]: H (more than 50% control value)

Structure (SMILES): COc1cc(F)c(-c2c(C(C)C)cc(Cl)c(=O)n2C)c(F)c1 [compound 16]
- Test C control value class [1]: H (more than 50% control value)
- Test D control value class [2]: H (more than 50% control value)
- Test F control value class [3]: L (50% or less control value)
- Test G control value class [4]: H (more than 50% control value)
- Test H control value class [5]: H (more than 50% control value)
- Test A control value class [6]: H (more than 50% control value)
- Test E control value class [7]: H (more than 50% control value)
- Test B control value class [8]: H (more than 50% control value)

Structure (SMILES): CCn1c(-c2c(F)cccc2F)c(C(C)O)cc(Cl)c1=O (stereo not shown) [compound 17]
- Test C control value class [1]: H (more than 50% control value)
- Test D control value class [2]: L (50% or less control value)
- Test F control value class [3]: H (more than 50% control value)
- Test G control value class [4]: H (more than 50% control value)
- Test H control value class [5]: H (more than 50% control value)
- Test A control value class [6]: L (50% or less control value)
- Test E control value class [7]: H (more than 50% control value)
- Test B control value class [8]: H (more than 50% control value)

Structure (SMILES): CCn1c(-c2c(F)cccc2F)c(C(C)OC)cc(Cl)c1=O (stereo not shown) [compound 18]
- Test C control value class [1]: H (more than 50% control value)
- Test D control value class [2]: H (more than 50% control value)
- Test F control value class [3]: H (more than 50% control value)
- Test G control value class [4]: H (more than 50% control value)
- Test H control value class [5]: H (more than 50% control value)
- Test A control value class [6]: H (more than 50% control value)
- Test E control value class [7]: H (more than 50% control value)
- Test B control value class [8]: H (more than 50% control value)

Structure (SMILES): CCOC(C)c1cc(Cl)c(=O)n(CC)c1-c1c(F)cccc1F (stereo not shown) [compound 19]
- Test C control value class [1]: H (more than 50% control value)
- Test D control value class [2]: H (more than 50% control value)
- Test F control value class [3]: L (50% or less control value)
- Test G control value class [4]: H (more than 50% control value)
- Test H control value class [5]: H (more than 50% control value)
- Test A control value class [6]: H (more than 50% control value)
- Test E control value class [7]: H (more than 50% control value)
- Test B control value class [8]: H (more than 50% control value)

Structure (SMILES): CCn1c(-c2c(F)cccc2F)c(C(C)=O)cc(Cl)c1=O [compound 22]
- Test C control value class [1]: H (more than 50% control value)
- Test D control value class [2]: L (50% or less control value)
- Test F control value class [3]: L (50% or less control value)
- Test G control value class [4]: H (more than 50% control value)
- Test H control value class [5]: H (more than 50% control value)
- Test A control value class [6]: L (50% or less control value)
- Test E control value class [7]: H (more than 50% control value)
- Test B control value class [8]: H (more than 50% control value)

Structure (SMILES): CCn1c(-c2c(F)cccc2F)c(C(C)(C)O)cc(Cl)c1=O [compound 23]
- Test C control value class [1]: H (more than 50% control value)
- Test D control value class [2]: H (more than 50% control value)
- Test F control value class [3]: L (50% or less control value)
- Test G control value class [4]: L (50% or less control value)
- Test H control value class [5]: H (more than 50% control value)
- Test A control value class [6]: H (more than 50% control value)
- Test E control value class [7]: H (more than 50% control value)
- Test B control value class [8]: H (more than 50% control value)

Structure (SMILES): CC=C(C)c1cc(Cl)c(=O)n(CC)c1-c1c(F)cccc1F [compound 28]
- Test C control value class [1]: H (more than 50% control value)
- Test D control value class [2]: H (more than 50% control value)
- Test F control value class [3]: L (50% or less control value)
- Test G control value class [4]: H (more than 50% control value)
- Test H control value class [5]: H (more than 50% control value)
- Test A control value class [6]: H (more than 50% control value)
- Test E control value class [7]: H (more than 50% control value)
- Test B control value class [8]: H (more than 50% control value)

Structure (SMILES): CCC(C)c1ccc(=O)n(CC)c1-c1c(F)cc(F)cc1F (stereo not shown) [compound 31]
- Test C control value class [1]: H (more than 50% control value)
- Test D control value class [2]: H (more than 50% control value)
- Test F control value class [3]: L (50% or less control value)
- Test G control value class [4]: H (more than 50% control value)
- Test H control value class [5]: H (more than 50% control value)
- Test A control value class [6]: H (more than 50% control value)
- Test E control value class [7]: H (more than 50% control value)
- Test B control value class [8]: H (more than 50% control value)

Structure (SMILES): CCC(C)c1cc(Br)c(=O)n(CC)c1-c1c(F)cc(F)cc1F (stereo not shown) [compound 32]
- Test C control value class [1]: H (more than 50% control value)
- Test D control value class [2]: H (more than 50% control value)
- Test F control value class [3]: L (50% or less control value)
- Test G control value class [4]: L (50% or less control value)
- Test H control value class [5]: H (more than 50% control value)
- Test A control value class [6]: H (more than 50% control value)
- Test E control value class [7]: H (more than 50% control value)
- Test B control value class [8]: H (more than 50% control value)

Structure (SMILES): CCC(C)c1cc(Cl)c(=O)n(CC)c1-c1c(F)cc(F)cc1F (stereo not shown) [compound 33]
- Test C control value class [1]: H (more than 50% control value)
- Test D control value class [2]: H (more than 50% control value)
- Test F control value class [3]: L (50% or less control value)
- Test G control value class [4]: L (50% or less control value)
- Test H control value class [5]: H (more than 50% control value)
- Test A control value class [6]: H (more than 50% control value)
- Test E control value class [7]: H (more than 50% control value)
- Test B control value class [8]: H (more than 50% control value)

Structure (SMILES): CCC(C)c1ccc(=O)n(CC)c1-c1c(F)cc(OC)cc1F (stereo not shown) [compound 34]
- Test C control value class [1]: H (more than 50% control value)
- Test D control value class [2]: H (more than 50% control value)
- Test F control value class [3]: L (50% or less control value)
- Test G control value class [4]: H (more than 50% control value)
- Test H control value class [5]: H (more than 50% control value)
- Test A control value class [6]: H (more than 50% control value)
- Test E control value class [7]: H (more than 50% control value)
- Test B control value class [8]: H (more than 50% control value)

Structure (SMILES): CCC(C)c1cc(Cl)c(=O)n(CC)c1-c1c(F)cc(OC)cc1F (stereo not shown) [compound 35]
- Test C control value class [1]: H (more than 50% control value)
- Test D control value class [2]: H (more than 50% control value)
- Test F control value class [3]: L (50% or less control value)
- Test G control value class [4]: L (50% or less control value)
- Test H control value class [5]: H (more than 50% control value)
- Test A control value class [6]: H (more than 50% control value)
- Test E control value class [7]: H (more than 50% control value)
- Test B control value class [8]: H (more than 50% control value)

Structure (SMILES): CCC(C)C1=C(c2c(F)cc(OC)cc2F)N(CC)C(=O)C(Br)C1 (stereo not shown) [compound 36]
- Test C control value class [1]: H (more than 50% control value)
- Test D control value class [2]: H (more than 50% control value)
- Test F control value class [3]: L (50% or less control value)
- Test G control value class [4]: H (more than 50% control value)
- Test H control value class [5]: H (more than 50% control value)
- Test A control value class [6]: H (more than 50% control value)
- Test E control value class [7]: H (more than 50% control value)
- Test B control value class [8]: H (more than 50% control value)

Structure (SMILES): CCn1c(-c2c(F)cc(F)cc2F)c(CC(C)C)ccc1=O [compound 37]
- Test C control value class [1]: L (50% or less control value)
- Test D control value class [2]: L (50% or less control value)
- Test F control value class [3]: L (50% or less control value)
- Test G control value class [4]: L (50% or less control value)
- Test H control value class [5]: L (50% or less control value)
- Test A control value class [6]: H (more than 50% control value)
- Test E control value class [7]: L (50% or less control value)
- Test B control value class [8]: L (50% or less control value)

Structure (SMILES): CCn1c(-c2c(F)cc(F)cc2F)c(CC(C)C)ccc1=O [compound 38]
- Test C control value class [1]: L (50% or less control value)
- Test D control value class [2]: H (more than 50% control value)
- Test F control value class [3]: L (50% or less control value)
- Test G control value class [4]: L (50% or less control value)
- Test H control value class [5]: L (50% or less control value)
- Test A control value class [6]: H (more than 50% control value)
- Test E control value class [7]: H (more than 50% control value)
- Test B control value class [8]: H (more than 50% control value)

Structure (SMILES): CCn1c(-c2c(F)cc(OC)cc2F)c(CC(C)C)ccc1=O [compound 39]
- Test C control value class [1]: H (more than 50% control value)
- Test D control value class [2]: H (more than 50% control value)
- Test F control value class [3]: L (50% or less control value)
- Test G control value class [4]: H (more than 50% control value)
- Test H control value class [5]: H (more than 50% control value)
- Test A control value class [6]: H (more than 50% control value)
- Test E control value class [7]: H (more than 50% control value)
- Test B control value class [8]: H (more than 50% control value)
